Earlier results in PMC8513935.

assay: derived by the authors as gas->solvent minus gas->water (a hypothetical dry solvent; the ESI), not a two-phase measurement; details: 1,2-Dichloroethane, 25 C

log K of transfer, water to solvent [log10 K]	Compound
6.04	CCCCCCCCC
5.12	CC(C)CCC(C)C
3.42	CC(C)(C)Cl

same assay, conditions: 2-Methylpropan-1-ol, 25 C

log K of transfer, water to solvent [log10 K]	Compound
1.14	Cc1ccccn1

same assay, conditions: 2-Methylpropan-2-ol, 25 C

log K of transfer, water to solvent [log10 K]	Compound
0.93	Cc1ccccn1
3.32	CC=C(C)C
2.96	CC(C)(C)Cl
0.77	Cc1cccnc1

same assay, conditions: Acetone, 25 C

log K of transfer, water to solvent [log10 K]	Compound
5.81	CCCCCCCCC
4.97	CC(C)CCC(C)C

same assay, conditions: Acetonitrile, 25 C

log K of transfer, water to solvent [log10 K]	Compound
5.15	CCCCCCCCC
4.41	CC(C)CCC(C)C

same assay, conditions: Benzene, 25 C

log K of transfer, water to solvent [log10 K]	Compound
0.9	Cc1ccccn1

same assay, conditions: Butan-1-ol, 25 C

log K of transfer, water to solvent [log10 K]	Compound
2.97	CC(C)(C)Cl
1.2	Cc1cccnc1

same assay, conditions: Butan-2-ol, 25 C

log K of transfer, water to solvent [log10 K]	Compound
0.999	Cc1ccccn1

same assay, conditions: Butanone, 25 C

log K of transfer, water to solvent [log10 K]	Compound
6.05	CCCCCCCCC
5.16	CC(C)CCC(C)C

same assay, conditions: Butyronitrile, 25 C

log K of transfer, water to solvent [log10 K]	Compound
5.78	CCCCCCCCC
4.94	CC(C)CCC(C)C

same assay, conditions: CCl4, 25 C

log K of transfer, water to solvent [log10 K]	Compound
6.7	CCCCCCCCC
5.68	CC(C)CCC(C)C
3.34	CC=C(C)C
3.48	CC(C)(C)Cl

same assay, conditions: Chlorobenzene, 25 C

log K of transfer, water to solvent [log10 K]	Compound
6.67	CCCCCCCCC
5.66	CC(C)CCC(C)C
3.41	CC(C)(C)Cl

same assay, conditions: Chloroform, 25 C

log K of transfer, water to solvent [log10 K]	Compound
1.72	Cc1ccccn1
6.57	CCCCCCCCC
5.58	CC(C)CCC(C)C
1.89	Cc1cccnc1

same assay, conditions: Cyclohexane, 25 C

log K of transfer, water to solvent [log10 K]	Compound
0.3	Cc1ccccn1
0.27	Cc1cccnc1

same assay, conditions: Cyclohexanone, 25 C

log K of transfer, water to solvent [log10 K]	Compound
5.99	CCCCCCCCC
5.08	CC(C)CCC(C)C
3.22	CC=C(C)C
3.46	CC(C)(C)Cl

same assay, conditions: Dichloromethane, 25 C

log K of transfer, water to solvent [log10 K]	Compound
6.36	CCCCCCCCC
5.42	CC(C)CCC(C)C

same assay, conditions: Diethyl Ether, 25 C

log K of transfer, water to solvent [log10 K]	Compound
3.28	CC(C)(C)Cl

same assay, conditions: Ethanol, 25 C

log K of transfer, water to solvent [log10 K]	Compound
5.67	CCCCCCCCC

same assay, conditions: Hexadecane, 25 C

log K of transfer, water to solvent [log10 K]	Compound
0.022	Cc1ccccn1
6.33	CCCCCCCCC
5.33	CC(C)CCC(C)C
3.19	CC=C(C)C
3.07	CC(C)(C)Cl
0.131	Cc1cccnc1

same assay, conditions: Hexane, 25 C

log K of transfer, water to solvent [log10 K]	Compound
6.66	CCCCCCCCC
5.66	CC(C)CCC(C)C
3.31	CC(C)(C)Cl

same assay, conditions: Methanol, 25 C

log K of transfer, water to solvent [log10 K]	Compound
5.38	CCCCCCCCC

same assay, conditions: Perfluoroalkane, 25 C

log K of transfer, water to solvent [log10 K]	Compound
5.02	CCCCCCCCC
4.39	CC(C)CCC(C)C

same assay, conditions: Propan-1-ol, 25 C

log K of transfer, water to solvent [log10 K]	Compound
5.7	CCCCCCCCC
1.15	Cc1cccnc1

same assay, conditions: Propan-2-ol, 25 C

log K of transfer, water to solvent [log10 K]	Compound
0.91	Cc1ccccn1
5.78	CCCCCCCCC
4.89	CC(C)CCC(C)C
2.85	CC(C)(C)Cl

same assay, conditions: Propionitrile, 25 C

log K of transfer, water to solvent [log10 K]	Compound
5.57	CCCCCCCCC
4.78	CC(C)CCC(C)C

same assay, conditions: Tetrahydrofuran, 25 C

log K of transfer, water to solvent [log10 K]	Compound
6.49	CCCCCCCCC
5.55	CC(C)CCC(C)C
3.3	CC(C)(C)Cl

same assay, conditions: Toluene, 25 C

log K of transfer, water to solvent [log10 K]	Compound
6.49	CCCCCCCCC
5.49	CC(C)CCC(C)C

assay: log P octanol/water from commercial databases, averaged (the ESI); details: Octanol (wet), 25 C

log K of transfer, water to solvent [log10 K]	Compound
1.12	Cc1ccccn1
5.65	CCCCCCCCC
4.8	CC(C)CCC(C)C
2.67	CC=C(C)C
2.58	CC(C)(C)Cl
1.2	Cc1cccnc1

assay: experimental, compiled by the authors from the literature (the ESI cites the sources); details: 1,2-Dichloroethane, 25 C

log K of transfer, gas to solvent [log10 K]	Compound
3.89	CCCCCCCCC
3.1	CC(C)CCC(C)C
2.62	CC(C)(C)Cl

same assay, conditions: 2-Methylpropan-1-ol, 25 C

log K of transfer, gas to solvent [log10 K]	Compound
4.54	Cc1ccccn1

same assay, conditions: 2-Methylpropan-2-ol, 25 C

log K of transfer, gas to solvent [log10 K]	Compound
4.33	Cc1ccccn1
2.36	CC=C(C)C
2.16	CC(C)(C)Cl
4.27	Cc1cccnc1

same assay, conditions: Acetonitrile, 25 C

log K of transfer, gas to solvent [log10 K]	Compound
3	CCCCCCCCC
2.39	CC(C)CCC(C)C

same assay, conditions: Benzene, 25 C

log K of transfer, gas to solvent [log10 K]	Compound
4.3	Cc1ccccn1

same assay, conditions: Butan-1-ol, 25 C

log K of transfer, gas to solvent [log10 K]	Compound
2.17	CC(C)(C)Cl
4.7	Cc1cccnc1

same assay, conditions: Butan-2-ol, 25 C

log K of transfer, gas to solvent [log10 K]	Compound
4.4	Cc1ccccn1

same assay, conditions: Butanone, 25 C

log K of transfer, gas to solvent [log10 K]	Compound
3.9	CCCCCCCCC
3.14	CC(C)CCC(C)C

same assay, conditions: Butyronitrile, 25 C

log K of transfer, gas to solvent [log10 K]	Compound
3.63	CCCCCCCCC
2.92	CC(C)CCC(C)C

same assay, conditions: CCl4, 25 C

log K of transfer, gas to solvent [log10 K]	Compound
4.55	CCCCCCCCC
3.66	CC(C)CCC(C)C
2.38	CC=C(C)C
2.68	CC(C)(C)Cl

same assay, conditions: Chlorobenzene, 25 C

log K of transfer, gas to solvent [log10 K]	Compound
4.52	CCCCCCCCC
3.64	CC(C)CCC(C)C
2.61	CC(C)(C)Cl

same assay, conditions: Chloroform, 25 C

log K of transfer, gas to solvent [log10 K]	Compound
5.12	Cc1ccccn1
4.42	CCCCCCCCC
3.56	CC(C)CCC(C)C
5.39	Cc1cccnc1

same assay, conditions: Cyclohexane, 25 C

log K of transfer, gas to solvent [log10 K]	Compound
3.7	Cc1ccccn1
3.77	Cc1cccnc1

same assay, conditions: Cyclohexanone, 25 C

log K of transfer, gas to solvent [log10 K]	Compound
3.84	CCCCCCCCC
3.06	CC(C)CCC(C)C
2.26	CC=C(C)C
2.66	CC(C)(C)Cl

same assay, conditions: Dichloromethane, 25 C

log K of transfer, gas to solvent [log10 K]	Compound
4.21	CCCCCCCCC
3.4	CC(C)CCC(C)C

same assay, conditions: Diethyl Ether, 25 C

log K of transfer, gas to solvent [log10 K]	Compound
2.48	CC(C)(C)Cl

same assay, conditions: Ethanol, 25 C

log K of transfer, gas to solvent [log10 K]	Compound
3.52	CCCCCCCCC

same assay, conditions: Hexadecane, 25 C

log K of transfer, gas to solvent [log10 K]	Compound
3.42	Cc1ccccn1
4.18	CCCCCCCCC
3.31	CC(C)CCC(C)C
2.23	CC=C(C)C
2.27	CC(C)(C)Cl
3.63	Cc1cccnc1

same assay, conditions: Hexane, 25 C

log K of transfer, gas to solvent [log10 K]	Compound
4.51	CCCCCCCCC
3.64	CC(C)CCC(C)C
2.51	CC(C)(C)Cl

same assay, conditions: Methanol, 25 C

log K of transfer, gas to solvent [log10 K]	Compound
3.23	CCCCCCCCC

same assay, conditions: Perfluoroalkane, 25 C

log K of transfer, gas to solvent [log10 K]	Compound
2.87	CCCCCCCCC
2.37	CC(C)CCC(C)C

same assay, conditions: Propan-1-ol, 25 C

log K of transfer, gas to solvent [log10 K]	Compound
3.55	CCCCCCCCC
4.65	Cc1cccnc1

same assay, conditions: Propan-2-ol, 25 C

log K of transfer, gas to solvent [log10 K]	Compound
4.31	Cc1ccccn1
3.63	CCCCCCCCC
2.87	CC(C)CCC(C)C
2.05	CC(C)(C)Cl

same assay, conditions: Propanone, 25 C

log K of transfer, gas to solvent [log10 K]	Compound
3.66	CCCCCCCCC
2.95	CC(C)CCC(C)C

same assay, conditions: Propionitrile, 25 C

log K of transfer, gas to solvent [log10 K]	Compound
3.42	CCCCCCCCC
2.76	CC(C)CCC(C)C

same assay, conditions: Tetrahydrofuran, 25 C

log K of transfer, gas to solvent [log10 K]	Compound
4.34	CCCCCCCCC
3.53	CC(C)CCC(C)C
2.5	CC(C)(C)Cl

same assay, conditions: Toluene, 25 C

log K of transfer, gas to solvent [log10 K]	Compound
4.34	CCCCCCCCC
3.47	CC(C)CCC(C)C

same assay, conditions: Water, 25 C

log K of transfer, gas to solvent [log10 K]	Compound
3.4	Cc1ccccn1
-2.15	CCCCCCCCC
-2.02	CC(C)CCC(C)C
-0.96	CC=C(C)C
-0.8	CC(C)(C)Cl
3.5	Cc1cccnc1
